biological target: T1, PDE4B (Homo sapiens, UniProt Q07343); test: PDE4 IMAP Assay; format: biochemical; conditions: catalytic domain of PDE4B, fluorescence polarization
T1 construct: hexa-histidine (His6) (N); made in house
Text: Compounds may be screened for functional potency in in vitro biochemical assays for their ability to inhibit the activity of phosphodiesterase (PDE) enzymes. A commercial PDE assay, Molecular Device's PDE IMAP assay, was modified and utilized to measure the inhibitory activity of compounds on PDE isoforms. The IMAP technology is based on the high affinity binding of phosphate by immobilized metal (MIII) coordination complexes on nanoparticles. This IMAP “binding reagent” complexes with phosphate groups on the nucleotide monophosphates generated in the reaction. Such binding causes a change in the rate of the molecular motion of the nucleotide, and results in an increase in the fluorescence polarization value observed for the fluorescent label attached to the substrate. PDE inhibitors prevent the generation of nucleotide monophosphates and the subsequent increase in polarization value observed for the fluorescent label attached to the substrate. The catalytic domain of PDE4B was fused to an amino-terminus hex-histadine affinity tag and purified. PDE4B enzyme was incubated with compounds for 10 minutes. Fluorescently labeled cyclic AMP substrates were then added to the PDE enzyme mix and incubated for 2 hours at room temperature. IMAP binding reagent was then added to the enzyme mix, incubated for 10-30 minutes and fluorescent polarization of the fluorescently labeled substrate was read either with the Perkin Elmer Viewlux or Molecular Devices Acquest or Analyst. Roflumilast and Rolipram are the positive controls used in the assay.

T1 sequence (Q07343 330-659 limits assumed, species assumed): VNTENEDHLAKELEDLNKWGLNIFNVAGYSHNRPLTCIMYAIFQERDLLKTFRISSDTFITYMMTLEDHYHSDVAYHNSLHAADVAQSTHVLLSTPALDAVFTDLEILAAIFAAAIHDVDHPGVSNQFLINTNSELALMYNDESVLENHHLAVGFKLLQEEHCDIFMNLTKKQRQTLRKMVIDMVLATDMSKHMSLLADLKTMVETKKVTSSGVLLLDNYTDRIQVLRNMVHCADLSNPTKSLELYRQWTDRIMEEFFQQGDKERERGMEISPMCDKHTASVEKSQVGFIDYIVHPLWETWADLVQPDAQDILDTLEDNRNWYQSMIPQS

Structure (SMILES)	inhibition at 10 µM [%]
COc1ccc(C2=NN(C(=O)CCCC(=O)O)C(c3cccs3)C2)cc1OC (stereo not drawn) [Example 1, 5-(3-(3,4-dimethoxyphenyl)-5-(thiophen-2-yl)-4,5-dihydro-1H-pyrazol-1-yl)-5-oxopentanoic acid]	< 50
COc1ccc(C2=NN(S(C)(=O)=O)C(c3cccs3)C2)cc1OC (stereo not drawn) [Example 2, 3-(3,4-dimethoxyphenyl)-1-(methylsulfonyl)-5-(thiophen-2-yl)-4,5-dihydro-1H-pyrazole]	< 50
COc1ccc(C2=NN(S(C)(=O)=O)C(c3c(F)cccc3Cl)C2)cc1OC (stereo not drawn) [Example 3, 5-(2-chloro-6-fluorophenyl)-3-(3,4-dimethoxyphenyl)-1-(methylsulfonyl)-4,5-dihydro-1H-pyrazole]	< 50
COc1cccc(C2CC(c3ccc(OC)c(OC)c3)=NN2S(C)(=O)=O)c1 (stereo not drawn) [Example 4, 3-(3,4-dimethoxyphenyl)-5-(3-methoxyphenyl)-1-(methylsulfonyl)-4,5-dihydro-1H-pyrazole]	< 50
COc1ccc(C2=NN(C(=O)CCC(=O)O)C(c3cc4cccc(C)c4nc3Cl)C2)cc1OC (stereo not drawn) [Example 5, 4-(5-(2-chloro-8-methylquinolin-3-yl)-3-(3,4-dimethoxyphenyl)-4,5-dihydro-1H-pyrazol-1-yl)-4-oxobutanoic acid]	< 50
COc1ccc2nc(Cl)c(C3CC(c4ccc(OC)c(OC)c4)=NN3C(=O)c3ccccc3Cl)cc2c1 (stereo not drawn) [Example 6, (5-(2-chloro-6-methoxyquinolin-3-yl)-3-(3,4-dimethoxyphenyl)-4,5-dihydro-1H-pyrazol-1-yl)(2-chlorophenyl)methanone]	< 50
COc1ccc2nc(Cl)c(C3CC(c4ccc(OC)c(OC)c4)=NN3C(=O)c3ccccc3)cc2c1 (stereo not drawn) [Example 7, (5-(2-chloro-6-methoxyquinolin-3-yl)-3-(3,4-dimethoxyphenyl)-4,5-dihydro-1H-pyrazol-1-yl)(phenyl)methanone]	< 50
CCC(=O)N1N=C(c2ccc(OC)c(OC)c2)CC1c1cc2cc(OC)ccc2nc1Cl (stereo not drawn) [Example 8, 1-(5-(2-chloro-6-methoxyquinolin-3-yl)-3-(3,4-dimethoxyphenyl)-4,5-dihydro-1H-pyrazol-1-yl)propan-1-one]	< 50
COc1ccc2nc(Cl)c(C3CC(c4ccc(OC)c(OC)c4)=NN3C(=O)c3ccco3)cc2c1 (stereo not drawn) [Example 9, (5-(2-chloro-6-methoxyquinolin-3-yl)-3-(3,4-dimethoxyphenyl)-4,5-dihydro-1H-pyrazol-1-yl)(furan-2-yl)methanone]	< 50
COc1ccc2cc(C3CC(c4ccc(OC)c(OC)c4)=NN3C(=O)c3ccco3)c(Cl)nc2c1 (stereo not drawn) [Example 10, (5-(2-chloro-7-methoxyquinolin-3-yl)-3-(3,4-dimethoxyphenyl)-4,5-dihydro-1H-pyrazol-1-yl)(furan-2-yl)methanone]	< 50
COc1ccc(C2=NN(S(C)(=O)=O)C(c3cccc(OC)c3OC)C2)cc1OC (stereo not drawn) [Example 11, 5-(2,3-dimethoxyphenyl)-3-(3,4-dimethoxyphenyl)-1-(methylsulfonyl)-4,5-dihydro-1H-pyrazole]	< 50
CCc1ccc(C2CC(c3ccc(OC)c(OC)c3)=NN2S(C)(=O)=O)cc1 (stereo not drawn) [Example 12, 3-(3,4-dimethoxyphenyl)-5-(4-ethylphenyl)-1-(methylsulfonyl)-4,5-dihydro-1H-pyrazole]	< 50
COc1ccc(C2=NN(S(C)(=O)=O)C(c3ccc(C)cc3)C2)cc1OC (stereo not drawn) [Example 13, 3-(3,4-dimethoxyphenyl)-1-(methylsulfonyl)-5-p-tolyl-4,5-dihydro-1H-pyrazole]	< 50
COc1ccc(C2CC(c3ccc(OC)c(OC)c3)=NN2S(C)(=O)=O)cc1 (stereo not drawn) [Example 14, 3-(3,4-dimethoxyphenyl)-5-(4-methoxyphenyl)-1-(methylsulfonyl)-4,5-dihydro-1H-pyrazole]	< 50
COc1ccc(C2=NN(S(C)(=O)=O)C(c3ccccc3Cl)C2)cc1OC (stereo not drawn) [Example 15, 5-(2-chlorophenyl)-3-(3,4-dimethoxyphenyl)-1-(methylsulfonyl)-4,5-dihydro-1H-pyrazole]	< 50
COc1ccc2cc(C3CC(c4ccc(OC)c(OC)c4)=NN3C(=O)c3ccccc3Cl)c(Cl)nc2c1 (stereo not drawn) [Example 16, (5-(2-chloro-7-methoxyquinolin-3-yl)-3-(3,4-dimethoxyphenyl)-4,5-dihydro-1H-pyrazol-1-yl)(2-chlorophenyl)methanone]	< 50
COc1ccc2cc(C3CC(c4ccc(OC)c(OC)c4)=NN3C(=O)CCCC(=O)O)c(Cl)nc2c1 (stereo not drawn) [Example 17, 5-(5-(2-chloro-7-methoxyquinolin-3-yl)-3-(3,4-dimethoxyphenyl)-4,5-dihydro-1H-pyrazol-1-yl)-5-oxopentanoic acid]	< 50
CCc1ccc(C2CC(c3ccc(OC)c(OC)c3)=NN2C(=O)CCCC(=O)O)cc1 (stereo not drawn) [Example 18, 5-(3-(3,4-dimethoxyphenyl)-5-(4-ethylphenyl)-4,5-dihydro-1H-pyrazol-1-yl)-5-oxopentanoic acid]	< 50
CCc1ccc(C2CC(c3ccc(OC)c(OC)c3)=NN2C(=O)CCC(=O)O)cc1 (stereo not drawn) [Example 19, 4-(3-(3,4-dimethoxyphenyl)-5-(4-ethylphenyl)-4,5-dihydro-1H-pyrazol-1-yl)-4-oxobutanoic acid]	< 50
CCC(=O)N1N=C(c2ccc(OC)c(OC)c2)CC1c1ccc(CC)cc1 (stereo not drawn) [Example 20, 1-(3-(3,4-dimethoxyphenyl)-5-(4-ethylphenyl)-4,5-dihydro-1H-pyrazol-1-yl)propan-1-one]	< 50
CCc1ccc(C2CC(c3ccc(OC)c(OC)c3)=NN2C(C)=O)cc1 (stereo not drawn) [Example 21, 1-(3-(3,4-dimethoxyphenyl)-5-(4-ethylphenyl)-4,5-dihydro-1H-pyrazol-1-yl)ethanone]	< 50
COc1ccc2cc(C3CC(c4ccc(OC)c(OC)c4)=NN3C(=O)CCC(=O)O)c(Cl)nc2c1 (stereo not drawn) [Example 22, 4-(5-(2-chloro-7-methoxyquinolin-3-yl)-3-(3,4-dimethoxyphenyl)-4,5-dihydro-1H-pyrazol-1-yl)-4-oxobutanoic acid]	< 50
COc1ccc2cc(C3CC(c4ccc(OC)c(OC)c4)=NN3C(C)=O)c(Cl)nc2c1 (stereo not drawn) [Example 23, 1-(5-(2-chloro-7-methoxyquinolin-3-yl)-3-(3,4-dimethoxyphenyl)-4,5-dihydro-1H-pyrazol-1-yl)ethanone]	< 50

The remaining lines, values ahead:

inhibition at 10 µM [%]	Structure (SMILES)
< 50	COc1ccc(C2=NN(S(=O)(=O)c3ccc(C)cc3)C(c3cn(-c4ccccc4)nc3-c3ccccc3)C2)cc1OC (stereo not drawn) [Example 24, 4-(3-(3,4-dimethoxyphenyl)-1-tosyl-4,5-dihydro-1H-pyrazol-5-yl)-1,3-diphenyl-1H-pyrazole]
< 50	COc1ccc(C2=NN(S(=O)(=O)c3ccccc3)C(c3cn(-c4ccccc4)nc3-c3ccccc3)C2)cc1OC (stereo not drawn) [Example 25, 4-(3-(3,4-dimethoxyphenyl)-1-(phenylsulfonyl)-4,5-dihydro-1H-pyrazol-5-yl)-1,3-diphenyl-1H-pyrazole]
< 50	COc1ccc(C2=NN(C(=O)c3ccccc3Cl)C(c3cn(-c4ccccc4)nc3-c3ccccc3)C2)cc1OC (stereo not drawn) [Example 26, (2-chlorophenyl)(3-(3,4-dimethoxyphenyl)-5-(1,3-diphenyl-1H-pyrazol-4-yl)-4,5-dihydro-1H-pyrazol-1-yl)methanone]
< 50	COc1ccc(C2=NN(C(=O)CCC(=O)O)C(c3cc4ccccc4nc3Cl)C2)cc1OC (stereo not drawn) [Example 27, 4-(5-(2-chloroquinolin-3-yl)-3-(3,4-dimethoxyphenyl)-4,5-dihydro-1H-pyrazol-1-yl)-4-oxobutanoic acid]
< 50	COc1ccc(C2=NN(C(C)=O)C(c3cc4ccccc4nc3Cl)C2)cc1OC (stereo not drawn) [Example 28, 1-(5-(2-chloroquinolin-3-yl)-3-(3,4-dimethoxyphenyl)-4,5-dihydro-1H-pyrazol-1-yl)ethanone]
< 50	COc1ccc(OC)c(C2CC(c3ccc(OC)c(OC)c3)=NN2C(=O)c2ccccc2Cl)c1 (stereo not drawn) [Example 29, (2-chlorophenyl)(5-(2,5-dimethoxyphenyl)-3-(3,4-dimethoxyphenyl)-4,5-dihydro-1H-pyrazol-1-yl)methanone]
< 50	COc1ccc(C2=NN(C(=O)c3ccccc3Cl)C(c3cccc(OC)c3OC)C2)cc1OC (stereo not drawn) [Example 30, (2-chlorophenyl)(5-(2,3-dimethoxyphenyl)-3-(3,4-dimethoxyphenyl)-4,5-dihydro-1H-pyrazol-1-yl)methanone]
< 50	COc1ccc(C2=NN(C(=O)c3ccccc3Cl)C(c3ccc(C)cc3)C2)cc1OC (stereo not drawn) [Example 32, (2-chlorophenyl)(3-(3,4-dimethoxyphenyl)-5-p-tolyl-4,5-dihydro-1H-pyrazol-1-yl)methanone]
≥ 50	COc1ccc(C2CC(c3ccc(OC)c(OC)c3)=NN2C(=O)c2ccccc2Cl)cc1 (stereo not drawn) [Example 33, (2-chlorophenyl)(3-(3,4-dimethoxyphenyl)-5-(4-methoxyphenyl)-4,5-dihydro-1H-pyrazol-1-yl)methanone]
≥ 50	COc1ccc(C2=NN(C(=O)c3ccccc3Cl)C(c3ccccc3F)C2)cc1OC (stereo not drawn) [Example 34, (2-chlorophenyl)(3-(3,4-dimethoxyphenyl)-5-(2-fluorophenyl)-4,5-dihydro-1H-pyrazol-1-yl)methanone]

Reference: patent US20100105729A1, “ARYL-SUBSTITUTED HETEROCYCLIC PDE4 INHIBITORS AS ANTI-INFLAMMATORY AGENTS” (KALYPSYS, INC., priority 2006, published 2010)
